According to US9592217B2, “Method for treating skin inflammatory diseases” (Olatec Therapeutics LLC, priority 2012, dated 2017):
Where two headings read alike, the source gives them in different places.

Experiments:
Format in all cases: in vivo
[1] = system: arachidonic acid induced ear swelling; assay: Topical arachidonic acid induced ear swelling model in mice; conditions: 30 min before and 15 min after arachidonic acid, measured at 90 minutes
Description: Purified 3-methanesulfonylpropionitrile was dissolved in vehicle (ethanol/acetone 1:1) to 5% (w/v). The active compound, indomethacin (positive control in vehicle), and vehicle were topically applied to mice and evaluated for anti-inflammatory activity in the topical arachidonic acid induced ear swelling model in mice, which is a model of irritant contact dermatitis.
Male ICR mice weighing 22±2 g were used and randomly divided; each group had 10 mice. Arachidonic Acid (0.5 mg in 20 μl of acetone:ethanol/1:1) was applied topically to the anterior and posterior surfaces of the right ear of each mice. Test substance and vehicle, as listed in Table 3 were similarly applied 30 min before and 15 min after arachidonic acid application. The thickness of the right ear and the left ear was measured and the difference calculated as an indication of the inflammation in the right ear. Ear swelling was measured by a Dyer model micrometer gauge at 60 and 90 minutes after arachidonic acid application as an index of inflammation. Percent inhibition was calculated according to the formula: Ic−It/Ic×100, where Ic and It refers to increase of ear thickness (mm) in control and treated mice, respectively. ANOVA and Dunnett's test were employed to ascertain significant difference between vehicle control and treated groups. Significance is set at P<0.05 level.

[2] = Systemic (plasma) exposure after oral and subcutaneous administration to rats
Description: This study was done to determine the systemic (plasma) exposure of MSPN after administration by the oral and subcutaneous routes to rats.
MSPN substance was prepared in water for oral administration and in saline for subcutaneous administration. Rats weighed 282 to 295 g were used in the study. Male rats (n=2) were given a single dose at 50, 160 or 500 mg/kg by both oral and subcutaneous routes. Female rats (n=2) were dosed only at 500 mg/kg by both oral and subcutaneous routes. The blood was drawn from each rat at 0.25, 1, 2, 3, 4, 6, 12, 24, and 48 hours and measured for MSPN concentration by LC/MS/MS.

rats = assay: Oral systemic toxicity in rats
dogs = assay: Oral systemic toxicity in dogs
[3] = decreased body temperature, decreased respiratory rate, increased blood pressure, increased heart rate

Compound | % Inhibition of ear swelling ([1]; (0.5% w/v), 0.1 mg/20 μL) [%] | % Inhibition of ear swelling ([1]; 375 mM (5% w/v), 1 mg/20 μL) [%] | Cmax ([2]; rat, plasma, 500 mg/kg, heading: average maximum plasma concentration, male rats, oral, single dose 500 mg/kg, read-out: average maximum plasma concentration (Cmax)) [µg/mL] | Cmax ([2]; rat, plasma, sc, 500 mg/kg, heading: average Cmax, female rats, subcutaneous, single dose 500 mg/kg, read-out: average Cmax) [µg/mL] | Cmax ([2]; rat, plasma, sc, male rats, subcutaneous, single dose 50 mg/kg, read-out: average maximum plasma concentration (Cmax)) [µg/mL] | Cmax ([2]; rat, plasma, sc, male rats, subcutaneous, single dose 160 mg/kg, read-out: average maximum plasma concentration (Cmax)) [µg/mL] | Cmax ([2]; rat, plasma, sc, male rats, subcutaneous, single dose 500 mg/kg, read-out: average maximum plasma concentration (Cmax)) [µg/mL] | Cmax ([2]; rat, plasma, female rats, oral, single dose 500 mg/kg, read-out: average Cmax) [µg/mL] | Cmax ([2]; rat, plasma, male rats, oral, single dose 50 mg/kg, read-out: average maximum plasma concentration (Cmax)) [µg/mL] | Cmax ([2]; rat, plasma, male rats, oral, single dose 160 mg/kg, read-out: average maximum plasma concentration (Cmax)) [µg/mL] | half-life ([2]; rat, plasma, rats, both routes (oral, subcutaneous) and both sexes, read-out: Half-lives) [h] | bioavailability ([2]; rats, after both the oral and subcutaneous routes) | doses at which effects were seen, relative to expected human therapeutic doses (rats) | effects seen after oral, systemic toxicity administration (rats; [3]) | doses at which effects were seen, relative to expected human therapeutic doses (dogs) | effects seen after oral, systemic toxicity administration (dogs; [3])
COc1ccc2c(c1)c(CC(=O)O)c(C)n2C(=O)c1ccc(Cl)cc1 [Indomethacin, indomethacin, reference compound] | 53 |  |  |  |  |  |  |  |  |  |  |  |  |  |  | 
CS(=O)(=O)CCC#N [MSPN, 3-methanesulfonylpropionitrile] |  | 36 | 12 | 9.5 | 160 | 760 | 3300 | 3800 | 160 | 560 | 8 to 15 | significant bioavailability | over 2000 fold | mild physiological effects | over 2000 fold | mild physiological effects
